Patent publication US8110601B2, “Compound, α1 adrenergic receptor antagonistic agent, and composition” (Suntory Holdings Limited, priority 2007, dated 2012)

Tests used:
α1A receptor = target: T1, α1A receptor (Rattus norvegicus, UniProt P43140); experiment: α1 adrenergic receptor binding test ([3H]prazosin displacement, rat salivary gland membrane homogenate); conditions: [3H]prazosin 0.06 nM as ligand; membrane homogenate of rat salivary gland; 22° C., 60 minutes; specimens 0.02-20 μM
T1 construct: the α1A receptors are present on a membrane of a rat salivary gland; from tissue; host or cells: rat salivary gland membrane homogenate
T1 sequence (P43140 1-466): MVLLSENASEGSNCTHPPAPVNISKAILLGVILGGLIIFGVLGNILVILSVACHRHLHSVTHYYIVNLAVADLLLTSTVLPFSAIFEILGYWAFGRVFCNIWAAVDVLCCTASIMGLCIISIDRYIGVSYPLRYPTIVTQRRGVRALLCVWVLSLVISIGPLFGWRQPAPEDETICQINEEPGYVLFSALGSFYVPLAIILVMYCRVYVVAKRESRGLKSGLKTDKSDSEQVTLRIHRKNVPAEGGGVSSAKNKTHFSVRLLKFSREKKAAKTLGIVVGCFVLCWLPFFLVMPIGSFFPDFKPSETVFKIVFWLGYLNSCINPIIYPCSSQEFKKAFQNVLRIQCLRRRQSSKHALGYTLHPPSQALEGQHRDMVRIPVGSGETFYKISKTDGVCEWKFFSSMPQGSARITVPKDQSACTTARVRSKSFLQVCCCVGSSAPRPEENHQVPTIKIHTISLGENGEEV
Experimental: The compound 19a synthesized in Examples above was weighed, to which 100% dimethylsulfoxide (DMSO) was added so as to prepare a solution at 10-fold of the final concentration. The solution was diluted with an assay buffer, to thereby prepare four types of specimens with different concentrations (0.02 μM, 0.2 μM, 2 μM, 20 μM). In addition, with respect to each of the compound 19b, the racemic mixture of the compounds 19a and 19b, and the racemic mixture of the compounds 20a and 20b, likewise, four types of specimens were prepared (see Mitchel, A. D. et al., (1989) Brt. J. Pharmacol., 98: 883-889).
Next, as the α1 adrenergic receptor, an α1A receptor (one of subtypes of the α1 adrenergic receptor) was used, and a binding ability to the α1A receptor was examined.
It has been known that the α1A receptors are present on a membrane of a rat salivary gland. To an assay buffer (250 μL) containing a membrane homogenate of a rat salivary gland (150 μg in terms of protein amount) were added the above-mentioned specimen and [^3H]prazosin (0.06 nM) as ligand, to thereby prepare a reaction liquid, which was then incubated at 22° C. for 60 minutes. After the incubation, the reaction liquid was subjected to suction filtration using a glass fiber filter (GF/B, manufactured by Packard) which had been washed with 0.3% PEI (polyethyleneimine), to terminate reaction. The glass fiber filter was washed with 50 mM Tris-HCl cooled with ice, washing being repeated several times. The glass fiber filter was dried, a scintillation cocktail (Microscint 0, manufactured by Packard) was added thereto, and residual radioactivity on the filter was measured using a liquid scintillation counter (Topcount, manufactured by Packard). An amount of specific binding of [^3H]prazosin was obtained by subtracting an amount of non-specific binding in the presence of phentolamine (10 μM) from a total binding amount of [^3H]prazosin.

α1 adrenergic receptor = experiment: Rat tail artery constriction inhibition test; conditions: phenylephrine 10 μM, compound 1 μM, 100 μM in organ bath, other receptors blocked with antagonists
Experimental: Since the α1 adrenergic receptor antagonist has been known to have a vasoconstriction inhibition effect, the constriction inhibition effect of the compounds was examined using rat tail artery.
The compound 19a synthesized in Examples above was weighed, to which 100% dimethylsulfoxide (DMSO) was added so as to prepare a sample solution (stock solution) (concentration of the compound 19a: 100 mM). In addition, the compound 19b, the racemic mixture of the compounds 19a and 19b, and the racemic mixture of the compounds 20a and 20b were prepared likewise.
A tissue (rat tail artery) with an exposed endothelium was suspended in an organ bath filled with 20 mL of saline (NaCl: 118.0 mM, KCl: 4.7 mM, MgSO4: 1.2 mM, CaCl2: 2.5 mM, NaHCO3: 25 mM, glucose: 11.0 mM) (pH7.4) at 37° C., into which 95% oxygen/5% carbon dioxide had been fed. In the rat tail artery tissue, the α2 adrenergic receptor, β adrenergic receptor, histamine H1 receptor, muscarine receptor, and 5-HT2 receptor had been expressed like the α1 adrenergic receptor had, and in order to block the actions of these receptors, antagonistic agents (antagonists) for the respective receptor, i.e., yohimbine (1 μM), propranol (1 μM), pyrilamine (1 μM), atropine (1 μM), and methysergide (1 μM), were added.
In order to measure the contraction of the tissue caused by an action of the α1 adrenergic receptor, the tissue was connected to a force transducer which outputs a tension of the tissue as data. The tension in a static state was adjusted to become 1 g, and was maintained for 60 minutes (during that time period, the tissue was repeatedly washed with saline to readjust the tension). To the tissue was added 10 μM of a reference agonist (phenylephrine 1.0E-05M), and it was confirmed that the tissue responded in a normal manner. At the same time, there was recorded the tension (g) obtained by the contraction of the tissue caused by the action of the reference agonist. After confirming that the tissue responded in a normal manner, the reference agonist was washed out once, and the tissue was allowed to stand still for up to 15 minutes until the response returns to a static state (tension: 1 g).
After the response returned to the static state (tension: 1 g), the reference agonist was added so that the contraction rate of the tissue becomes 100%.
Next, the sample solution or a diluted solution thereof was added in such a manner that each of the concentrations of the compound 19a, the compound 19b, the racemic mixture of the compounds 19a and 19b, and the racemic mixture of the compounds 20a and 20b in the organ bath was increased in three stages (1 μM, 10 μM, 100 μM). Every time the concentration was increased, the tension was measured, and the contraction rate was calculated using the following equation. […]

| IC50 (α1A receptor) | SMILES | effect on contraction of rat tail artery caused by reference agonist (phenylephrine) (α1 adrenergic receptor) |
| --- | --- | --- |
| 2.39 µM | COC(=O)C1c2cc(C=CC(=O)NCCCCNC(=N)N)ccc2OC1c1ccc(O)cc1 (racemic) [racemic mixture of the compounds 19a and 19b, methyl-5-(1E)-[[4-(aminoiminomethyl)amino]butylamino]-3-oxo-1-propenyl]-2,3-dihydro-2-(4-hydroxyphenyl)-3-benzofurancarboxylate] | suppressed a response in the reference agonist (phenylephrine) in a dosage-dependent manner |
| 1.99 µM | N=C(N)NCCCCNC(=O)/C=C/c1ccc2c(c1)C(C(=O)O)C(c1ccc(O)cc1)O2 (racemic) [racemic mixture of the compounds 20a and 20b] | suppressed a response in the reference agonist (phenylephrine) in a dosage-dependent manner |
| 2.03 µM | COC(=O)[C@@H]1c2cc(/C=C/C(=O)NCCCCNC(=N)N)ccc2O[C@H]1c1ccc(O)cc1 [compound 19a] | suppressed a response in the reference agonist (phenylephrine) in a dosage-dependent manner |
| 0.61 µM | COC(=O)[C@H]1c2cc(/C=C/C(=O)NCCCCNC(=N)N)ccc2O[C@@H]1c1ccc(O)cc1 [compound 19b] | suppressed a response in the reference agonist (phenylephrine) in a dosage-dependent manner |
